The target in experiment [1] is T1, Tyrosine-protein kinase BTK (Homo sapiens, UniProt Q06187). Put plainly: Inhibition of BTK in human PBMC assessed as reduction in CD69 expression.
For experiment [2], the target named is AP2-associated protein kinase 1 (Homo sapiens) (UniProt Q2M2I8). The experiment in a line: Inhibition of human wild-type AAK1 (G25 to L333 residues) expressed in bacterial expression system at 1 uM by Kinomescan method relative to control.
The target in experiment [3] is Serine/threonine-protein kinase MRCK gamma (Homo sapiens) (UniProt Q6DT37). Put plainly: Inhibition of wild-type human partial length DMPK2 (S46 to S408 residues) expressed in bacterial expression system at 1 uM by Kinomescan method relative to control.
Experiment [4] deals with Receptor-type tyrosine-protein kinase FLT3 (Homo sapiens) (UniProt P36888). Put plainly: Inhibition of wild-type human partial length FLT3 (V592 to Y969 residues) expressed in bacterial expression system at 1 uM by Kinomescan method relative to control.
The target in experiment [5] is Tyrosine-protein kinase JAK2 (Homo sapiens) (UniProt O60674). The experiment in a line: Inhibition of wild-type human partial length JAK2 JH1 catalytic domain (A829 to G1132 residues) expressed in mammalian expression system at 1 uM by Kinomescan method relative to control.
Experiment [6] deals with Mitogen-activated protein kinase 10 (Homo sapiens) (UniProt P53779). Put plainly: Inhibition of wild-type human partial length JNK3 (V28 to Q422 residues) expressed in mammalian expression system at 1 uM by Kinomescan method relative to control.
The target in experiment [7] is MAP kinase-activated protein kinase 5 (Homo sapiens) (UniProt Q8IW41). The experiment in a line: Inhibition of wild-type human partial length MAPKAPK5 (M1 to D322 residues) expressed in mammalian expression system at 1 uM by Kinomescan method relative to control.
Experiment [8] deals with Serine/threonine-protein kinase MRCK beta (Homo sapiens) (UniProt Q9Y5S2). Put plainly: Inhibition of wild-type human partial length MRCKB (L56 to S417 residues) expressed in bacterial expression system at 1 uM by Kinomescan method relative to control.
Experiment [9] deals with Mitogen-activated protein kinase 14 (Homo sapiens) (UniProt Q16539). The experiment in a line: Inhibition of wild-type human full length p38-alpha (M1 to S360 residues) expressed in bacterial expression system at 1 uM by Kinomescan method relative to control.
The target in experiment [10] is Serine/threonine-protein kinase PAK 4 (Homo sapiens) (UniProt O96013). The experiment in a line: Inhibition of wild-type human partial length PAK4 (Q144 to R438 residues) expressed in bacterial expression system at 1 uM by Kinomescan method relative to control.
For experiment [11], the target named is cAMP-dependent protein kinase catalytic subunit beta (Homo sapiens) (UniProt P22694). The experiment in a line: Inhibition of wild-type human full length PKAC-beta (M1 to F351 residues) expressed in bacterial expression system at 1 uM by Kinomescan method relative to control.
The target of experiment [12] is Serine/threonine-protein kinase 36 (Homo sapiens) (UniProt Q9NRP7). Put plainly: Inhibition of wild-type human partial length STK36 (M1 to T271 residues) expressed in bacterial expression system at 1 uM by Kinomescan method relative to control.
The target in experiment [13] is Serine/threonine-protein kinase TNNI3K (Homo sapiens) (UniProt Q59H18). Put plainly: Inhibition of wild-type human full length TNNI3K (M1 to S835 residues) expressed in bacterial expression system at 1 uM by Kinomescan method relative to control.
For experiment [14], the target named is NT-3 growth factor receptor (Homo sapiens) (UniProt Q16288). The experiment in a line: Inhibition of wild-type human partial length TRKC (Q531 to G825 residues) expressed in mammalian expression system at 1 uM by Kinomescan method relative to control.
Experiment [15] deals with Phosphatidylinositol 3-kinase catalytic subunit type 3 (Homo sapiens) (UniProt Q8NEB9). The experiment in a line: Inhibition of wild-type human partial length VPS34 (S282 to H879 residues) expressed in mammalian expression system at 1 uM by Kinomescan method relative to control.
In experiment [16] the target is T1, Tyrosine-protein kinase BTK. The experiment in a line: biochemical.
Description: Reversible inhibition of recombinant full-length N-terminal 6-His-tagged human BTK expressed in baculovirus infected Sf21 insect cells using fluorescent-labeled polyGAT peptide as substrate incubated for 30 mins by TR-FRET assay
Experiment [17] deals with Aurora kinase C (Homo sapiens) (UniProt Q9UQB9). Put plainly: Inhibition of wild-type human full length AURKC (M1 to S275 residues) expressed in bacterial expression system at 10 uM by Kinomescan method relative to control.
In experiment [18] the target is Mitogen-activated protein kinase 7 (Homo sapiens) (UniProt Q13164). Put plainly: Inhibition of wild-type human partial length ERK5 (M1 to A409 residues) expressed in bacterial expression system at 10 uM by Kinomescan method relative to control.
For experiment [19], the target named is Serine/threonine-protein kinase ICK (Homo sapiens) (UniProt Q9UPZ9). The experiment in a line: Inhibition of wild-type human partial length ICK (M1 to P314 residues) expressed in mammalian expression system at 10 uM by Kinomescan method relative to control.
In experiment [20] the test system is Mast/stem cell growth factor receptor Kit (Homo sapiens), P10721 [D816V]. The experiment in a line: Inhibition of human partial length KIT D816V mutant (I571 to D952 residues) expressed in bacterial expression system at 10 uM by Kinomescan method relative to control.
The target of experiment [21] is Dual specificity mitogen-activated protein kinase kinase 6 (Homo sapiens) (UniProt P52564). Put plainly: Inhibition of wild-type human partial length MEK6 (K36 to D334 residues) expressed in bacterial expression system at 10 uM by Kinomescan method relative to control.
Experiment [22] addresses Serine/threonine-protein kinase mTOR (Homo sapiens) (UniProt P42345). The experiment in a line: Inhibition of wild-type human partial length MTOR (L1382 to W2549 residues) expressed in mammalian expression system at 10 uM by Kinomescan method relative to control.
The target of experiment [23] is Phosphatidylinositol 4-kinase beta (Homo sapiens) (UniProt Q9UBF8). Put plainly: Inhibition of wild-type human full length PIK4CB (M1 to M828 residues) expressed in mammalian expression system at 10 uM by Kinomescan method relative to control.
Experiment [24] concerns the target Rho-associated protein kinase 2 (Homo sapiens) (UniProt O75116). Put plainly: Inhibition of wild-type human partial length ROCK2 (M1 to T431 residues) expressed in mammalian expression system at 10 uM by Kinomescan method relative to control.
Experiment [25] addresses Ribosomal protein S6 kinase alpha-3 (Homo sapiens) (UniProt P51812). Put plainly: Inhibition of wild-type human partial length N-terminal RSK2 kinase domain 1 (M1 to D394 residues) expressed in mammalian expression system at 10 uM by Kinomescan method relative to control.
The target of experiment [26] is Tyrosine-protein kinase Srms (Homo sapiens) (UniProt Q9H3Y6). Put plainly: Inhibition of wild-type human partial length SRMS (L208 to P488 residues) expressed in mammalian expression system at 10 uM by Kinomescan method relative to control.
Experiment [27] addresses Serine/threonine-protein kinase 16 (Homo sapiens) (UniProt O75716). The experiment in a line: Inhibition of wild-type human partial length STK16 (G11 to I305 residues) expressed in bacterial expression system at 10 uM by Kinomescan method relative to control.
In experiment [28] the target is Tyrosine-protein kinase receptor TYRO3 (Homo sapiens) (UniProt Q06418). The experiment in a line: Inhibition of wild-type human partial length TYRO3 (S497 to T814 residues) expressed in bacterial expression system at 10 uM by Kinomescan method relative to control.

Molecules are shown by their SMILES.

T1 sequence (Q06187 whole entry, the tested form may be a part): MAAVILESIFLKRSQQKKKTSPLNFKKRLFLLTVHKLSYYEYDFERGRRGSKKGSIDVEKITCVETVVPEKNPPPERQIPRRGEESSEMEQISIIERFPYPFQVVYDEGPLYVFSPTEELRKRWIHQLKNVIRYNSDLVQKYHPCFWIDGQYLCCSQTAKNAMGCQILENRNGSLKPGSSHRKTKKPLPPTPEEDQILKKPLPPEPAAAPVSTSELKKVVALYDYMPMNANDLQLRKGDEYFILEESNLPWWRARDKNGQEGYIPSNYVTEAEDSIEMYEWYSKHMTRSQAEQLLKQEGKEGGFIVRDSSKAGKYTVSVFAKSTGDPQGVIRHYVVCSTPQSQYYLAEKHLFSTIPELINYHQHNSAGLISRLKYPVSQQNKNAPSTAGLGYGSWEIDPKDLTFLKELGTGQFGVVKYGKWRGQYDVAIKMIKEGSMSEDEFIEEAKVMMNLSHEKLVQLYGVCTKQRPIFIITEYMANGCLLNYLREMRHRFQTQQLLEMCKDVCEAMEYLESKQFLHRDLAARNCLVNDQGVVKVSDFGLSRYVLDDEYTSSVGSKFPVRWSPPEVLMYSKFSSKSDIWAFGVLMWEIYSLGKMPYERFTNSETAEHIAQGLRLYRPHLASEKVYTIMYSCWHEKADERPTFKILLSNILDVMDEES
Sequence of Serine/threonine-protein kinase TNNI3K (Homo sapiens) (Q59H18 whole entry, the tested form may be a part): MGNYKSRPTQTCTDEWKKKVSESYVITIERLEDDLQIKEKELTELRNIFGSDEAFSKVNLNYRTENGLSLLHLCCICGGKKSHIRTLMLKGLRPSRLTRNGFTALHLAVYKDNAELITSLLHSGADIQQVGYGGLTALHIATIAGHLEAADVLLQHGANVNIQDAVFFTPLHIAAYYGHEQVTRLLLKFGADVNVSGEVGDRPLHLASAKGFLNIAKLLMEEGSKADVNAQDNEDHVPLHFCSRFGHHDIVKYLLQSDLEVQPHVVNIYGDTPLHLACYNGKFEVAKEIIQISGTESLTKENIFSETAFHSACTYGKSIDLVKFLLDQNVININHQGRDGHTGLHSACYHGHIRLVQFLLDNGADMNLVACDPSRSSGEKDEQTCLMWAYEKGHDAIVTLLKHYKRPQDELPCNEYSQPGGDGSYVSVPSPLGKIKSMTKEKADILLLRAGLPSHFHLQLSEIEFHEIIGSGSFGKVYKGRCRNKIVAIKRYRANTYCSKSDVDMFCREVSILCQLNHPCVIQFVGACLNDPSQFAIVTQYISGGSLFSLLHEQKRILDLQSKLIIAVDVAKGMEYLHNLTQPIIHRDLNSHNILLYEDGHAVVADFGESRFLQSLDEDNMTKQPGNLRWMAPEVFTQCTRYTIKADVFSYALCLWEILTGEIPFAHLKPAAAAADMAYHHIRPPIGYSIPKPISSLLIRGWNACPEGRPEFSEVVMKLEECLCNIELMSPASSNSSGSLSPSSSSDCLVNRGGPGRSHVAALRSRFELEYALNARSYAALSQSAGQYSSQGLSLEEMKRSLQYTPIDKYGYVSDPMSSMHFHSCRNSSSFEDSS
Sequence of Rho-associated protein kinase 2 (Homo sapiens) (O75116 whole entry, looked up, the tested form may be a part): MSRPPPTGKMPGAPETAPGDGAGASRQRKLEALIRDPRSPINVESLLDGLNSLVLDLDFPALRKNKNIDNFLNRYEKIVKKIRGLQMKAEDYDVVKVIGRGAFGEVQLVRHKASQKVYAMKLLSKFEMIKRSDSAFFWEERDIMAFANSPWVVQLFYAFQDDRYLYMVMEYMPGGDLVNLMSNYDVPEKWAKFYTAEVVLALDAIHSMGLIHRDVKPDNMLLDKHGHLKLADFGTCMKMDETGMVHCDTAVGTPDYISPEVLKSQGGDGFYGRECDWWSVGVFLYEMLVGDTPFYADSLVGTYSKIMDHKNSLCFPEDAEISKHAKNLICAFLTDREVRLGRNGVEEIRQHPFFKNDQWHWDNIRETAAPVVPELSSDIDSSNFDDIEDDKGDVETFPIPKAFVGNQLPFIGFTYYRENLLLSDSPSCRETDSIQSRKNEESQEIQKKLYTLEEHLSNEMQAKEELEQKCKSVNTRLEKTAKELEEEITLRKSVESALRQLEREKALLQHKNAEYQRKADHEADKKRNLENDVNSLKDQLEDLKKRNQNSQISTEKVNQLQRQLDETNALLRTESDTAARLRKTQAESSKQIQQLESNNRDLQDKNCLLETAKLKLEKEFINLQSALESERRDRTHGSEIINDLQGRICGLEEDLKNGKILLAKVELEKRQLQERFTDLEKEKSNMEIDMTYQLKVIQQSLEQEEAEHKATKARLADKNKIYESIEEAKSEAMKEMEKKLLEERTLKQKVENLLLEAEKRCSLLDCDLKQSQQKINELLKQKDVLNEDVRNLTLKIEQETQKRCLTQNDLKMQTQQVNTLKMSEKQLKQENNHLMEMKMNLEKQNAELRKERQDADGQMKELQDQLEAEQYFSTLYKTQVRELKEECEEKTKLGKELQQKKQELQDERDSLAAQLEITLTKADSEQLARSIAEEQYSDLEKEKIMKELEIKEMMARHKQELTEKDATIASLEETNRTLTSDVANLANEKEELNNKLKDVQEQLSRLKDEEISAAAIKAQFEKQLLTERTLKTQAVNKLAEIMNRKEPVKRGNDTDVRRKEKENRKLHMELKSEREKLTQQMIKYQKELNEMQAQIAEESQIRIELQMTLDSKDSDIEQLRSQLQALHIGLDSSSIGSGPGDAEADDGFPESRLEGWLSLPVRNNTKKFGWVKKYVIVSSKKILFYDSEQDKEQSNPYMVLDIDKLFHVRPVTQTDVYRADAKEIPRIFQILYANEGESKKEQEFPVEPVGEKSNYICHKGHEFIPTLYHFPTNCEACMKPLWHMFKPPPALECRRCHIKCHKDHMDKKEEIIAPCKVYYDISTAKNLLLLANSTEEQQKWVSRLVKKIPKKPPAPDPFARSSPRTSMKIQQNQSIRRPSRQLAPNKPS
Sequence of NT-3 growth factor receptor (Homo sapiens) (Q16288 32-839 limits assumed): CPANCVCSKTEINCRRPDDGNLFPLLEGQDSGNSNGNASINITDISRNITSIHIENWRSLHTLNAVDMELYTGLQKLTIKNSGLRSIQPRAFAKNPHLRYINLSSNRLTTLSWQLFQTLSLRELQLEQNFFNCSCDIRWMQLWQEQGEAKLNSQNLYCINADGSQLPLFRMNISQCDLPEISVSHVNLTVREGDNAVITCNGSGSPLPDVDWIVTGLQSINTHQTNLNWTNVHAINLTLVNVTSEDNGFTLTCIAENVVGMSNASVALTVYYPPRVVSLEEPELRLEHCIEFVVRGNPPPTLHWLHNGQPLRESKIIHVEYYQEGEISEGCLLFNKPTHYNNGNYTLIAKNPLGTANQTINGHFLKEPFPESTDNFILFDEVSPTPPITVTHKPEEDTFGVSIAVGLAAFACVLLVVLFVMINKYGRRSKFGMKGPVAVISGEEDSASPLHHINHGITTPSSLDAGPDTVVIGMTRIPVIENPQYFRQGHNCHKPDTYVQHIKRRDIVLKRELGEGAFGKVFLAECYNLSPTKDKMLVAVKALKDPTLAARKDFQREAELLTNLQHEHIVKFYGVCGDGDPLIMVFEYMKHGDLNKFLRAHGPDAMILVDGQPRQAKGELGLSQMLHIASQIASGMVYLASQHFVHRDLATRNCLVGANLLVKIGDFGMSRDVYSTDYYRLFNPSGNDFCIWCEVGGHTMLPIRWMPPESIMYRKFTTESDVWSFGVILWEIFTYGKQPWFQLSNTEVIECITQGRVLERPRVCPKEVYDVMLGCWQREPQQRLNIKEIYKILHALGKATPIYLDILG
Sequence of Tyrosine-protein kinase Srms (Homo sapiens) (Q9H3Y6 whole entry, the tested form may be a part): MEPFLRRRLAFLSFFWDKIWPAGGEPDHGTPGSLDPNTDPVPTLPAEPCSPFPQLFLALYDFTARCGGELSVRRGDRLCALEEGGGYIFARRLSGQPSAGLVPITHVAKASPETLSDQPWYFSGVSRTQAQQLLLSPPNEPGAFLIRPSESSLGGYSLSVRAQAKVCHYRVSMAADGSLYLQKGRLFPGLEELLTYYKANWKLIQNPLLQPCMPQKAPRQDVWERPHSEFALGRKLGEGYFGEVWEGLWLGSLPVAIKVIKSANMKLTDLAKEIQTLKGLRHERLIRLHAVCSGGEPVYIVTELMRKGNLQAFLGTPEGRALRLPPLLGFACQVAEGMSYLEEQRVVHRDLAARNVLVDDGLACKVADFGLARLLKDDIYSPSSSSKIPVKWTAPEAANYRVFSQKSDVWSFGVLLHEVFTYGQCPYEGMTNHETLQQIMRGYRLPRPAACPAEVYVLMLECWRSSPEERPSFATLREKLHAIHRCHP
Sequence of Ribosomal protein S6 kinase alpha-3 (Homo sapiens) (P51812 whole entry, the tested form may be a part): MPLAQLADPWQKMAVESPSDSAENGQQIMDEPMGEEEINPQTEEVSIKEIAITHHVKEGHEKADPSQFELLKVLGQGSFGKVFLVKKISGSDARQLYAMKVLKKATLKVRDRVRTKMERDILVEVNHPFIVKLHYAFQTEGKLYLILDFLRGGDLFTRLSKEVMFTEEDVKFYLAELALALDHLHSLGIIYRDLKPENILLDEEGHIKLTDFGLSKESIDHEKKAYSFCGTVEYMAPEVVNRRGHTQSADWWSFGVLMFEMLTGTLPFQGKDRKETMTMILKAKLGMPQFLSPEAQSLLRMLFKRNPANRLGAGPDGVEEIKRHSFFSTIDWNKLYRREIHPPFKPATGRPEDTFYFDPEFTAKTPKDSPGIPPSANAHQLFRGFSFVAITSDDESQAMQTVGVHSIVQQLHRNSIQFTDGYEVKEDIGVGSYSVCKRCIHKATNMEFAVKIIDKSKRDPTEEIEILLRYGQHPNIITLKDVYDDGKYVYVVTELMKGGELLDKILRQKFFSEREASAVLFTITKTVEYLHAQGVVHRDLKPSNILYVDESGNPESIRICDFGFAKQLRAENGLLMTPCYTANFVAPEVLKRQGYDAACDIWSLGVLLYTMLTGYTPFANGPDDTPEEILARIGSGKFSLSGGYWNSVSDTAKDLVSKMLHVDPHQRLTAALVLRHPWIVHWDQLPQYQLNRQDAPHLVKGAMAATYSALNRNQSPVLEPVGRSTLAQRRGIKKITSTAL

As usually defined, the IC50 is the concentration that gives 50% inhibition. The inhibition is the change of the read-out against control, counted positive when it falls. A low value points to a response near the control. On to `O=C(Nc1cccc([C@@H]2CN(c3ncnc4[nH]ccc34)CCN2CCO)c1)Nc1c(F)cccc1N1CCCC1`, for which the IC50 turned out to be 240 nM in [1] and 1 nM in experiment [16]. In addition, the inhibition in [2] stood at 75%; in experiment [3] it was 100%; in [4], 52%; in [5], 0%; in experiment [6] it was 97%; in experiment [7], 100%. Further, the inhibition was found to be 100% in experiment [8]; 100% in experiment [9]; 75% in experiment [10]; 99% in experiment [11]; 100% in experiment [12]; 100% in experiment [13]. Further, the inhibition stood at 99% in [14] and 100% in experiment [15].
On to `O=C(Nc1cccc([C@H]2CCCN(c3ncnc4[nH]ccc34)C2)c1)Nc1ccccc1N1CCCC1`, for which the inhibition in [17] was 4.3%; in experiment [18] it was 100%; in [19], 100%; in experiment [20] it was 0.9%; in experiment [21] it was 86%; in [22], 98%. Moreover, the inhibition in experiment [23] was 89%; in [24] it was 49%; in experiment [25], 57%; in experiment [26], 65%; in experiment [27], 18%; in experiment [28], 100%.

(Values after ChEMBL document CHEMBL4387741, “Optimization of novel reversible Bruton's tyrosine kinase inhibitors identified using Tethering-fragment-based screens” (Bioorg Med Chem, 2019).)
